Laboratory results taken from patent publication US20240124442A1, “TRICYCLIC-AMIDO-BICYCLIC PRMT5 INHIBITORS” (AMGEN INC., priority 2021, published 2024).

Key:
HCT116 MTAP null cells = test: HCT116 MTAP null cell line proliferation / cell viability (CellTiter-Glo, 6 days); type: cell-based; conditions: 144 h; HCT116 MTAP null cells, 6 days treatment, CellTiter-Glo cell viability; read-out: HCT-116 MTAP null IC50
In short: (§1)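 Isogenic HCT116 pair (parental and MTAP-knockout) in RPMI 1640 + 10% FBS, treated 6 days with 8–9-point 1:3 dilutions from 1 or 10 μM top, or 22-point 1:2 dilutions from 10 or 50 μM top. Viability by CellTiter-Glo luminescence; IC50 from 4-parameter logistic fit or sigmoidal fit with Hill slope fixed at −1.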

HCT116 WT cells = test: HCT116 WT (parent) cell line proliferation / cell viability (CellTiter-Glo, 6 days); type: cell-based; conditions: Homo sapiens, HCT-116, 144 h, 6 days treatment
In short: as §1

| SMILES | IC50 (HCT116 MTAP null cells) [nM] | IC50 (HCT116 WT cells) [nM] |
| --- | --- | --- |
| Cc1nn(C)c2c1c(N)nc1ccc(C(=O)N(C)[C@@H]3COCc4nc(C(F)(F)F)ccc43)cc12 [Example 309, 4-amino-N,1,3-trimethyl-N-((5S)-2-(trifluoromethyl)-5,8-dihydro-6H-pyrano[3,4-b]pyr-idin-5-yl)-1H-pyrazolo[4,3-c]-quinoline-8-carboxamide] | 150 | 9590 |
| Cc1n[nH]c2c1c(N)nc1cnc(C(=O)N(C)[C@@H]3COCc4nc(C(F)(F)F)ccc43)cc12 [Example 310, 4-amino-N,3-dimethyl-N-((5S)-2-(trifluoromethyl)-5,8-dihydro-6H-pyrano[3,4-b]pyridin-5-yl)-1H-pyrazolo-[4,3-c][1,7]naphthyridine-8-carboxamide] | 110 | 7380 |
| Cc1nn(C)c2c1c(N)nc1cnc(C(=O)N(C)[C@@H]3COCc4cc(C(F)(F)F)ccc43)cc12 [Example 311, 4-amino-N,1,3-trimethyl-N-((4S)-7-(trifluoromethyl)-3,4-dihydro-1H-2-benzopyran-4-yl)-1H-pyrazolo[4,3-c][1,7]-naphthyridine-8-carboxamide] | 30 | 1020 |
| Cc1nn(C)c2c1c(N)nc1cnc(C(=O)N(C)[C@@H]3COCc4nc(C(F)(F)F)ccc43)cc12 [Example 312, 4-amino-N,1,3-trimethyl-N-((5S)-2-(trifluoromethyl)-5,8-dihydro-6H-pyrano[3,4-b]-pyridin-5-yl)-1H-pyrazolo-[4,3-c][1,7]naphthyridine-8-carboxamide] | 103 | 9480 |
| Cc1nn(C)c2c1c(N)nc1cc(F)c(C(=O)N(C)[C@@H]3COCc4cc(C(F)(F)F)ccc43)cc12 [Example 313, 4-amino-7-fluoro-N,1,3-trimeth-yl-N-((4S)-7-(trifluoromethyl)-3,4-dihydro-1H-2-benzopyran-4-yl)-1H-pyrazolo[4,3-c]quin-oline-8-carboxamide] | 14 | 523 |
| Cc1nn(C)c2c1c(N)nc1cc(F)c(C(=O)N(C)[C@@H]3COCc4nc(C(F)(F)F)ccc43)cc12 [Example 314, 4-amino-7-fluoro-N,1,3-trimeth-yl-N-((5S)-2-(trifluoromethyl)-5,8-dihydro-6H-pyrano[3,4-b]-pyridin-5-yl)-1H-pyrazolo[4,3-c]quinoline-8-carboxamide] | 41 | 2630 |
| CN(C(=O)c1ccc2nc(N)c(I)cc2c1)[C@@H]1COCc2nc(C(F)(F)F)ccc21 [Example 315, 2-amino-3-iodo-N-methyl-N-((5S)-2-(trifluoromethyl)-5,8-dihydro-6H-pyrano[3,4-b]pyridin-5-yl)-6-quinoline-carboxamide] | 508 | 13400 |
| Cc1cc2nc(N)c3cnn(C)c3c2cc1C(=O)N(C)C1CCOCc2nc(C(F)(F)F)ccc21 [Example 316, 4-amino-N,1,7-trimethyl-N-(5R)-2-(trifluoromethyl)-5,6,7,9-tetrahydrooxepino[3,4-b]pyridin-5-yl)-1H-pyrazolo-[4,3-c]quinoline-8-carboxamide and 4-amino-N,1,7-trimethyl-N-((5S)-2-(trifluoromethyl)-5,6,7,9-tetrahydrooxepino[3,4-b]pyridin-5-yl)-1H-pyrazolo-[4,3-c]quinoline-8-carboxamide] | 26 | 1720 |
| Nc1nc2cc(Cl)c(C(=O)N(C3CC3)[C@@H]3COc4cc(C(F)(F)F)ccc43)cc2c2c1COC2 [Example 442, (S)-4-amino-7-chloro-N-cyclopropyl-N-(6-(trifluoromethyl)-2,3-dihydrobenzofuran-3-yl)-1,3-dihydrofuro[3,4-c]quinoline-8-carboxamide] | 9 | 200 |
| Nc1nc2cc(Cl)c(C(=O)N(C3CC3)[C@H]3COc4cc(C(F)(F)F)ccc43)cc2c2c1COC2 [Example 443, 4-amino-7-chloro-N-cyclopropyl-N-((3R)-6-(trifluoromethyl)-2,3-dihydro-1-benzofuran-3-yl)-1,3-dihydrofuro[3,4-c]quinoline-8-carboxamide] | 433 | 3460 |
| CN(C(=O)c1ccc2nc(N)c3c(c2c1)COC3)[C@@H]1COc2cc(S(C)(=N)=O)ccc21 (stereo partly drawn) [Example 446, 4-amino-N-methyl-N-((3S)-6-(S-methylsulfonimidoyl)-2,3-dihydro-1-benzofuran-3-yl)-1,3-dihydrofuro[3,4-c]quinoline-8-carboxamide] | 864 | 36000 |
| Nc1nc2ccc(C(=O)N(C3CC3)[C@@H]3COc4cc(C(F)(F)F)ccc43)cc2c2c1COC2 [Example 448, 4-amino-N-cyclopropyl-N-((3S)-6-(trifluoromethyl)-2,3-dihydro-1-benzofuran-3-yl)-1,3-dihydrofuro[3,4-c]quinoline-8-carboxamide] | 58 | 3710 |
| CCN(C(=O)c1ccc2nc(N)c3c(c2c1)COC3)c1coc2cc(C(F)(F)F)ccc12 [Example 451, 4-amino-N-ethyl-N-(6-(trifluoromethyl)-1-benzofuran-3-yl)-1,3-dihydrofuro[3,4-c]quinoline-8-carboxamide] | 5180 | 9520 |
| CN(C(=O)c1cc2c3c(c(N)nc2cn1)COC3)[C@@H]1COc2cc(F)c(F)cc21 [Example 452, 4-amino-N-((3S)-5,6-difluoro-2,3-dihydro-1-benzofuran-3-yl)-N-methyl-1,3-dihydrofuro[3,4-c][1,7]naphthyridine-8-carboxamide] | 173 | 13400 |
| CN(C(=O)c1cc2c3c(c(N)nc2cn1)COC3)[C@@H]1COc2cc(-c3cnn(C(F)(F)F)c3)ccc21 [Example 457, 4-amino-N-methyl-N-((3S)-6-(1-(trifluoromethyl)-1H-pyrazol-4-yl)-2,3-dihydro-1-benzofuran-3-yl)-1,3-dihydrofuro[3,4-c][1,7]naphthyridine-8-carboxamide] | 63 | 3770 |
| CN(C(=O)c1cc2c3c(c(N)nc2cc1F)COC3)[C@@H]1COc2cc(S(C)(=N)=O)ccc21 (stereo partly drawn) [Example 462, 4-amino-7-fluoro-N-methyl-N-((3S)-6-(S-methylsulfonimidoyl)-2,3-dihydro-1-benzofuran-3-yl)-1,3-dihydrofuro[3,4-c]quinoline-8-carboxamide] | 237 | 11700 |
| C[C@H]1OCc2c1c(N)nc1cc(F)c(C(=O)N(C)[C@@H]3COc4cc(C(F)(F)F)ccc43)cc21 [Example 466, (3R)-4-amino-7-fluoro-N,3-dimethyl-N-((3S)-6-(trifluoromethyl)-2,3-dihydro-1-benzofuran-3-yl)-1,3-dihydrofuro[3,4-c]quinoline-8-carboxamide] | 9 | 245 |
| C[C@H]1OCc2c1c(N)nc1cc(F)c(C(=O)N(C3CC3)[C@@H]3COc4cc(C(F)(F)F)ccc43)cc21 [Example 467, (3R)-4-amino-N-cyclopropyl-7-fluoro-3-methyl-N-((3S)-6-(trifluoromethyl)-2,3-dihydro-1-benzofuran-3-yl)-1,3-dihydrofuro[3,4-c]quinoline-8-carboxamide] | 10 | 418 |
| CC(C)N(C(=O)c1cc2c3c(c(N)nc2cc1F)[C@@H](C)OC3)[C@@H]1COc2cc(C(F)(F)F)ccc21 [Example 468, (3R)-4-amino-7-fluoro-3-methyl-N-(2-propanyl)-N-((3S)-6-(trifluoromethyl)-2,3-dihydro-1-benzofuran-3-yl)-1,3-dihydrofuro[3,4-c]quinoline-8-carboxamide] | 114 | 2690 |
| CC(C)N(C(=O)c1cc2c3c(c(N)nc2cc1F)[C@@H](C)OC3)[C@H]1COc2cc(C(F)(F)F)ccc21 [Example 469, (3R)-4-amino-7-fluoro-3-methyl-N-(2-propanyl)-N-((3R)-6-(trifluoromethyl)-2,3-dihydro-1-benzofuran-3-yl)-1,3-dihydrofuro[3,4-c]quinoline-8-carboxamide] | 2730 | 19700 |
| C[C@H]1OCc2c1c(N)nc1cc(F)c(C(=O)N(C3CCC3)[C@@H]3COc4cc(C(F)(F)F)ccc43)cc21 [Example 470, (3R)-4-amino-N-cyclobutyl-7-fluoro-3-methyl-N-((3S)-6-(trifluoromethyl)-2,3-dihydro-1-benzofuran-3-yl)-1,3-dihydrofuro[3,4-c]quinoline-8-carboxamide] | 27 | 256 |
| C[C@H]1OCc2c1c(N)nc1cc(F)c(C(=O)N(C3CCC3)[C@H]3COc4cc(C(F)(F)F)ccc43)cc21 [Example 471, (3R)-4-amino-N-cyclobutyl-7-fluoro-3-methyl-N-((3R)-6-(trifluoromethyl)-2,3-dihydro-1-benzofuran-3-yl)-1,3-dihydrofuro[3,4-c]quinoline-8-carboxamide] | 574 | 13900 |
| CN(C(=O)c1ccc2nc(N)c3cnn(C)c3c2c1)[C@@H]1COc2cc(C(F)(F)F)ccc21 [Example 473, 4-amino-N,1-dimethyl-N-((3S)-6-(trifluoromethyl)-2,3-dihydro-1-benzofuran-3-yl)-1H-pyrazolo[4,3-c]quinoline-8-carboxamide] | 15 | 349 |
| CN(C(=O)c1cc2c(cn1)nc(N)c1cnn(C)c12)[C@@H]1COc2cc(Cl)c(Cl)cc21 [Example 474, 4-amino-N-((3S)-5,6-dichloro-2,3-dihydro-1-benzofuran-3-yl)-N,1-dimethyl-1H-pyrazolo[4,3-c][1,7]naphthyridine-8-carboxamide] | 8 | 174 |
| CN(C(=O)c1cc2c(cc1F)nc(N)c1cnn(C)c12)[C@@H]1COc2cc(F)c(F)cc21 [Example 475, 4-amino-N-((3S)-5,6-difluoro-2,3-dihydro-1-benzofuran-3-yl)-7-fluoro-N,1-dimethyl-1H-pyrazolo[4,3-c]quinoline-8-carboxamide] | 8 | 199 |
